Reference: US20210317140A1, “Heterocyclic Compounds and Methods of Use” (MEDIVATION TECHNOLOGIES, INC, priority 2013, published 2021)

Experiments:
[1] = molecular target: T1, BTK (Homo sapiens, UniProt Q06187); experiment: BTK kinase assay (HotSpot, 33P ATP); format: biochemical; settings: for BTK @ 0.1 μM (% Inh): 0.1 μM compound; for BTK @ 0.1 μM (% Inh) / BTK @ 1 μM (% Inh): 10 μM ATP; for BTK @ 1 μM (% Inh): 1 μM compound; for IC50: 10 dose IC50, 10 μM ATP
T1 construct: purchased Reaction Biology Corporation
Method: (§1) Compounds of the invention were profiled in a 10 dose IC50 panel against BTK and PI3Kδ, both provided by Reaction Biology Corporation.
BTK assay: In vitro profiling protein kinases was performed using the “HotSpot” assay platform. Briefly, specific kinase/substrate pairs along with required cofactors were prepared in reaction buffer. Compounds were prepared as 10 mM stock solutions in DMSO. Compounds were delivered into the reaction, followed 15-20 minutes later by addition of a mixture of ATP (Sigma, St. Louis Mo.) and ^33P ATP (Perkin Elmer, Waltham Mass.) to a final concentration of 10 μM. […] IC50 values and curve fits were obtained using Prism (GraphPad Software). Buffer Conditions: 20 mM Hepes (pH 7.5), 10 mM MgCl2, 1 mM EGTA, 0.02% Brij35, 0.02 mg/mL BSA, 0.1 mM Na3VO4, 2 mM DTT, 1% DMSO.

[2] = molecular target: T2, PI3Kδ (Homo sapiens, UniProt O00329); experiment: PI3Kδ kinase assay (HTRF, PIP3 detection); format: biochemical; settings: for PI3Kδ @ 0.1 μM (% Inh): 0.1 μM compound; for PI3Kδ @ 0.1 μM (% Inh) / PI3Kδ @ 1 μM (% Inh): 10 μM ATP; for PI3Kδ @ 1 μM (% Inh): 1 μM compound; for IC50: 10 dose IC50, 10 μM ATP
T2 construct: purchased Reaction Biology Corporation
Source text: as §1
PI3Kδ assay: The PIP3 product is detected by displacement of biotin-PIP3 from an energy transfer complex consisting of Europium labeled anti-GST monoclonal antibody, a GST-tagged pleckstrin homology (PH) domain, biotinylated PIP3 and Streptavidin-Allophycocyanin (APC). […] The PIP3 product formed by PI 3-Kinase(h) activity displaces biotin-PIP3 from the complex resulting in a loss of energy transfer and thus a decrease in signal. This is a 3-step reaction: First, the kinase reaction with PIP2 substrate is carried out in the presence of ATP (10 μM), and the reaction is quenched with stop Solution, and then finally detect by adding Detection Mixture followed by incubation (10 min). Reaction procedure: 1) Prepare substrate in freshly prepared Reaction Buffer. 2) Deliver kinase into the substrate solution and gently mix. 3) Deliver compounds in 100% DMSO (1 μM) into the kinase reaction mixture by Acoustic technology (Echo550; nanoliter range), incubate for 10 min at RT. 4) Deliver ATP into the reaction mixture to initiate the reaction. 5) Incubate for 30 min at 30° C. 6) Quench the reaction with Stop Solution. 7) Add Detection Mixture, and incubate for overnight. […] The emission ratio is converted into μM PIP3 production based on PIP3 standard curves. The nonlinear regression to obtain the standard curve and IC50 values are performed using Graphpad Prism software. Assay Buffer: HEPES 50 mM (pH7.0), NaN3 0.02%, BSA 0.01%, Orthovanadate 0.1 mM, 1% DMSO. Detection buffer: HEPES 10 mM (pH7.0), BSA 0.02%, KF 0.16 M, EDTA 4 mM. Substrate: 10 μM PIP2 substrate (PI(4,5)P2).

T1 sequence (Q06187 whole entry): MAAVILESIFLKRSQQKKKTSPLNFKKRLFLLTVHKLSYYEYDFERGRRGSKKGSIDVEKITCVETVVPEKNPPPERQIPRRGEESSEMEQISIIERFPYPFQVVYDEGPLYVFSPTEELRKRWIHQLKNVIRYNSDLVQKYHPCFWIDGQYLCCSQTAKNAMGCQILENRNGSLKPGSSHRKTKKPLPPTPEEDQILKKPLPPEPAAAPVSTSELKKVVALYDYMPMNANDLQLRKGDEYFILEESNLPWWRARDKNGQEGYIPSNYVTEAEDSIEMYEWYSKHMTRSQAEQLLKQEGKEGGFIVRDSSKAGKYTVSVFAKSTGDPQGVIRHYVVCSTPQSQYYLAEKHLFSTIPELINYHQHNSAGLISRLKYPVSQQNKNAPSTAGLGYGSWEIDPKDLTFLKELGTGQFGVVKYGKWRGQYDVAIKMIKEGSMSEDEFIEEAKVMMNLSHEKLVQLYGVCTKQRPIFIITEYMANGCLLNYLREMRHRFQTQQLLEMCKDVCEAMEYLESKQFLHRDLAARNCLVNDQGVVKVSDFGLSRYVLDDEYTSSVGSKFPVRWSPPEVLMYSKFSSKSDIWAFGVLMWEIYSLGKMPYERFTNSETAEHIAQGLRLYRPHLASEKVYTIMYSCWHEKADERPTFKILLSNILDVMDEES
T2 sequence (O00329 whole entry): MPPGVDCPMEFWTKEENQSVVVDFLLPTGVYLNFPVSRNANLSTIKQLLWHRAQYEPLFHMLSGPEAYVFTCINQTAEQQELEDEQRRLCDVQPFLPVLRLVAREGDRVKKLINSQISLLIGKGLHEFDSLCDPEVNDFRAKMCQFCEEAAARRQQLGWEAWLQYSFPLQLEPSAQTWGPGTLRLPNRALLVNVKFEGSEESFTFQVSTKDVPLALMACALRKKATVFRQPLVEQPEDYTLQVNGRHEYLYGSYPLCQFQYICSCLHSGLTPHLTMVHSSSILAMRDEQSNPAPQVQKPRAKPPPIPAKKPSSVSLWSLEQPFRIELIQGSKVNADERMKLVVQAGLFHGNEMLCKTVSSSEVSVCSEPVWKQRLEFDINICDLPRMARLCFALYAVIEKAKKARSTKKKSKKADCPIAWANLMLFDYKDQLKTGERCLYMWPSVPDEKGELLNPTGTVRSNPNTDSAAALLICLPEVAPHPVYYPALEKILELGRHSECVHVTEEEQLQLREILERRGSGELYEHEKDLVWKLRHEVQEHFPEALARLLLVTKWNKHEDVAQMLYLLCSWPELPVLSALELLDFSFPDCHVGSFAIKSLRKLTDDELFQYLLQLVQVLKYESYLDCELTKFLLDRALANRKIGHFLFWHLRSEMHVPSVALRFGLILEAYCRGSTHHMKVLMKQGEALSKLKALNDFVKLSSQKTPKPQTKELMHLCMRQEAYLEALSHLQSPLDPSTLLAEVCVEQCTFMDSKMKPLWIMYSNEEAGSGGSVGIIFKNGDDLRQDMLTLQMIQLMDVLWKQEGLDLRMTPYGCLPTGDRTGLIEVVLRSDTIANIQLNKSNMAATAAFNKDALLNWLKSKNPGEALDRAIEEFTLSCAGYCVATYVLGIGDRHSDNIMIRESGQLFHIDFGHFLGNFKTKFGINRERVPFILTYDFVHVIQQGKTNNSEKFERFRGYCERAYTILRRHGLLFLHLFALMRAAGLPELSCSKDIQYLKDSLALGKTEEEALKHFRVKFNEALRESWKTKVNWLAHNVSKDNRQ
T2 sequence (P27986 whole entry partner): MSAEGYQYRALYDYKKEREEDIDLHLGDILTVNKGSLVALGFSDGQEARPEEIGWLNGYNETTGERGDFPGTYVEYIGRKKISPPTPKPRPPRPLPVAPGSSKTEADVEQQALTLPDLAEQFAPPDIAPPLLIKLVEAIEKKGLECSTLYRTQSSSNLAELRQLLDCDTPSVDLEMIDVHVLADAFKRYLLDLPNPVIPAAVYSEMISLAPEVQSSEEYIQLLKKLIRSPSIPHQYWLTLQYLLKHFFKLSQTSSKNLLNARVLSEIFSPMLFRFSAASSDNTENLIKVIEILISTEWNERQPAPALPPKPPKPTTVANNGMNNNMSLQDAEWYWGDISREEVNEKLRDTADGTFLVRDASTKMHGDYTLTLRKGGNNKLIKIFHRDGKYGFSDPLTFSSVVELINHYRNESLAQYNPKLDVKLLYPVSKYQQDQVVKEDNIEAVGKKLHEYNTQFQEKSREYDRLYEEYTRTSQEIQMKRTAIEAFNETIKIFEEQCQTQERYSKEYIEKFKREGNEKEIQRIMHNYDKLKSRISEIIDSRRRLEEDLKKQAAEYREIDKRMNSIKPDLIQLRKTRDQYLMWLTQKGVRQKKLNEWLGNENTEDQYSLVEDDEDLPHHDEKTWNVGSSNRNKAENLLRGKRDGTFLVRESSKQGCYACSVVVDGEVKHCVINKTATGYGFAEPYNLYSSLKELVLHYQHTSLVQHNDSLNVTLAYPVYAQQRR

Compound | BTK @ 0.1 μM (% Inh) [1] | BTK @ 1 μM (% Inh) [1] | IC50 [1] | PI3Kδ @ 0.1 μM (% Inh) [2] | PI3Kδ @ 1 μM (% Inh) [2] | IC50 [2]
Nc1ncnc2c1c(-c1ccc(CO)cc1)nn2C1Cc2ccccc2C1 [Compound No. 55, {4-[4-amino-1-(2,3-dihydro-1H-inden-2-yl)-1H-pyrazolo[3,4-d]pyrimidin-3-yl]phenyl}methanol] | 14.00 % Inh | 50.29 % Inh | 2090 nM | 15.60 % Inh | 48.96 % Inh | 10400 nM
NC(=O)/C=C/c1nn(C2Cc3ccccc3C2)c2ncnc(N)c12 [Compound No. 58, (2E)-3-[4-amino-1-(2,3-dihydro-1H-inden-2-yl)-1H-pyrazolo[3,4-d]pyrimidin-3-yl]prop-2-enamide] | 18.0 % Inh | 43.79 % Inh |  | 33.15 % Inh | 44.88 % Inh | 
CC(=O)Nc1cccc(-c2nn(C3Cc4ccccc4C3)c3ncnc(N)c23)c1 [Compound No. 59, N-{3-[4-amino-1-(2,3-dihydro-1H-inden-2-yl)-1H-pyrazolo[3,4-d]pyrimidin-3-yl]phenyl}acetamide] | 14.08 % Inh | 19.76 % Inh |  | 17.93 % Inh | 5.79 % Inh | 
CC(=O)Nc1cc(F)cc(-c2nn(C3Cc4ccccc4C3)c3ncnc(N)c23)c1 [Compound No. 60, N-{3-[4-amino-1-(2,3-dihydro-1H-inden-2-yl)-1H-pyrazolo[3,4-d]pyrimidin-3-yl]-5-fluorophenyl}acetamide] | 16.91 % Inh | 30.02 % Inh |  | 10.65 % Inh | 31.35 % Inh | 
COc1cncc(-c2nn(C3Cc4ccccc4C3)c3ncnc(N)c23)c1 [Compound No. 61, 1-(2,3-dihydro-1H-inden-2-yl)-3-(5-methoxypyridin-3-yl)-1H-pyrazolo[3,4-d]pyrimidin-4-amine] | 16.63 % Inh | 45.41 % Inh |  | 32.36 % Inh | 71.04 % Inh | 
COc1cc(F)cc(-c2cn(C3Cc4ccccc4C3)c3ncnc(N)c23)c1 [Compound No. 62, 7-(2,3-dihydro-1H-inden-2-yl)-5-(3-fluoro-5-methoxyphenyl)-7H-pyrrolo[2,3-d]pyrimidin-4-amine] | 57.13 % Inh | 91.61 % Inh |  | 17.28 % Inh | 43.03 % Inh | 
COc1cc(-c2nn(C3Cc4ccccc4C3)c3ncnc(N)c23)ccc1N [Compound No. 66, 3-(4-amino-3-methoxyphenyl)-1-(2,3-dihydro-1H-inden-2-yl)-1H-pyrazolo[3,4-d]pyrimidin-4-amine] | 69.93 % Inh | 95.07 % Inh | 25.3 nM | 17.08 % Inh | 53.69 % Inh | 461 nM
COc1cc(-c2nn(C3Cc4ccccc4C3)c3ncnc(N)c23)ccc1C(F)(F)F [Compound No. 69, 1-(2,3-dihydro-1H-inden-2-yl)-3-[3-methoxy-4-(trifluoromethyl)phenyl]-1H-pyrazolo[3,4-d]pyrimidin-4-amine] | 19.61 % Inh | 61.7 % Inh | 791 nM | 4.96 % Inh | 60.21 % Inh | 328 nM
Nc1ncnc2c1c(-c1ccnc3[nH]ccc13)nn2C1Cc2ccccc2C1 [Compound No. 70, 1-(2,3-dihydro-1H-inden-2-yl)-3-{1H-pyrrolo[2,3-b]pyridin-4-yl}-1H-pyrazolo[3,4-d]pyrimidin-4-amine] | 12.11 % Inh | 36.56 % Inh |  | 9.29 % Inh | 56.41 % Inh | 
